Assay [1] concerns LACS expression in cultured myocardial cells. Briefly: LACS protein expression in cultured myocardial cells under hypertrophic agonist stimulation. In kind it is cell-based, rat. Particulars: for LACS protein expression on hypertrophic agonist stimulation: primary cultured neonatal rat myocardial cells. The protocol:
Primary cultures of myocardial cells isolated from neonatal rats (one- to three-day old) using trypsin and collagenase were prepared. For the first 24 to 48 hours, the cells were cultured in a serum-containing medium, and then for another 24 hours in a serum-free medium.
Myocardial cells cultured by the same method in Example 4 were used. First, cells were stimulated with the representative hypertrophic agonists, AngII, phenylephrine, and Endothelin-1.
LACS expression which increases upon phenylephrine stimulation was suppressed by the simultaneous administration of 10 μM of Y27632 (ROCK inhibitor; Calbiochem). […] Rho is a low-molecular-weight GTP-binding protein (small G protein) involved in the contraction of smooth muscles, and regulation of cytokinesis, cell motility, and cytomorphology, via reorganization of actin filaments.

Assay [2] relates to LACS mRNA expression in the heart. Briefly: LACS mRNA expression in the hearts of AngII infusion rats. In kind it is in vivo, rat. Particulars: osmotic pump 0.7 mg/kg/day. The protocol: Cardiac tissues derived from AngII infusion rats (osmotic pump: 0.7 mg/kg/day), and SHRs of 4 weeks and 24 weeks, were used. ATIR antagonist (ARB) and hydrazine (Hyd) were used as antihypertensive agents. Each of the antihypertensive agents was used at an amount sufficient for lowering the blood pressure (10 mg/kg/day for ARB; 12 mg/kg/day for Hyd).

The test system of assay [3] is LACS mRNA expression in cardiac tissues. Briefly: LACS mRNA expression in cardiac tissues of L-NAME-administered WKY rats (Northern blotting). It is filed as in vivo, rat. Particulars: male WKY rats, oral L-NAME 100 mg/L. The protocol:
RNAs were extracted from the hearts of a male WKY rat group that has been subjected to a one-week oral administration of L-NAME (100 mg/L), and from the hearts of a control group without L-NAME administration. […] As a result, a novel LACS (L-NAME related actin cytoskeletal protein) gene was successfully isolated. […] Furthermore, mRNA expression in tissues other than the heart was also analyzed by Northern blotting. […] Particularly with the heart, the expression of LACS mRNA was confirmed in the myocardial cells.

Positions of bridges follow the written chain, without caps; N, C: chain ends. No end group written: not given here.

Take “angiotensin II (DRVYIHPF; Angiotensin-2; UniProt P01019 25-32, looked up) [AngII, representative hypertrophic agonist]”: the “LACS protein expression on hypertrophic agonist stimulation” value (shortened to “LACS protein expression”) in assay [1] is reported as “found to increase”. The “LACS expression in the heart after AngII administration” value in assay [2] was “increased LACS expression after the third day”.

Take `C[C@@H](N)[C@H]1CC[C@H](C(=O)Nc2ccncc2)CC1` [Y27632]: in assay [1] (cultured myocardial cells, simultaneous administration of 10 μM), the “Effect on the LACS expression increased by phenylephrine stimulation” value is on record as “suppressed”.

Regarding `COC(=O)[C@@H](N)CCCN=C(N)N[N+](=O)[O-].Cl` [L-NAME, N^G-Nitro-L-arginine methyl ester, hydrochloride], the “LACS mRNA expression level in cardiac tissues after L-NAME administration” value in assay [3] is listed as “reaches its peak one to three days after L-NAME administration”.

Turning to “Endothelin-1 (CSCSSLMDKECVYFCHLDIIW; disulfide 1-15, 3-11; ends not checked; UniProt P05305 53-73, looked up) [representative hypertrophic agonist]”, in assay [1], the “LACS protein expression” value is reported as “found to increase”.

For the compound `CNC[C@H](O)c1cccc(O)c1` [phenylephrine], in assay [1], the “LACS protein expression” value was “found to increase”.

These data come from patent publication US7345158B2, “Actin related cytoskeletal protein “LACS”” (Anges MG, Inc., priority 2002, dated 2008).
